Where two headings read alike, the source gives them in different places.
How the values were obtained:
[1] = system: pericytes expressing Cre-dependent diphtheria toxin receptor; type: in vivo, mouse; settings: TAM-treated Pericyte-CreER; iDTR mice; DT 1 μg i.p. per day for 10 days; 3 days after DT; versus vehicle
[2] = system: pericytes expressing Cre-dependent diphtheria toxin receptor
Procedure: (§1) Animals were sacrificed at 3 days post DT or vehicle treatment (FIG. 3A) or 15 days post DT or vehicle treatment (FIG. 4A) as indicated, and brains were collected and analyzed.
(§2) Animals were anesthetized with an i.p. injection of 100 mg/kg of ketamine and 50 mg/kg of 10 xylazine, and transcardially perfused first with 15 ml saline, followed by 20 ml of 4% paraformaldehyde (PFA) in PBS. Brains were removed, and post-fixed overnight at 4° C. before brain sections were cut at 30 μm thickness. Sections were blocked with 5% normal donkey serum (Vector Laboratories)/0.1% Triton-X/0.01M PBS and incubated with primary antibody diluted in blocking solution overnight at 4° C. […] To visualize brain microvessels, sections were incubated with Dylight 488-conjugated L. esculentum Lectin as the Inventors have previously reported. […] Sections were imaged with a Zeiss LSM 510 confocal laser-scanning microscope using a series of high-resolution optical sections (1,024×1,024-pixel format) that were captured with a 25× water-immersion objective, with 1× zoom at 1-μm step intervals for Z-stacks. Laser settings for gain, digital offset and laser intensity were kept standardized between different treatments and experiments. Z-stack projections and pseudo-coloring were performed using ZEN software (Carl Zeiss Microimaging), and image post-analysis were performed using ImageJ software.
Tissue was incubated for 30 min in 20 μg/ml Proteinase K and the In Situ Cell Death Detection Kit (Roche) was used per the manufacturer's instructions. Sections were coverslipped as described above. For each image, ten microns maximum projection z-stacks were reconstructed and analyzed using ImageJ. […] In each animal 5 randomly selected fields from the cortex were analyzed in 3 nonadjacent sections (˜100 μm apart). Three animals per group were analyzed.
The quantitative analysis of pericyte coverage and numbers was restricted to CD13-positive cells that were associated with brain capillaries defined as microvessels ≤6 μm in diameter, as previously described. The endothelial-specific Lycopersicon esculentum lectin was used to visualize endothelial vascular profiles, and CD13 coverage of brain capillaries was determined as CD13-positive area (percentage) occupying lectin-positive endothelial capillary profiles, as previously. For each image, ten microns maximum projection z-stacks were reconstructed and analyzed using ImageJ. Pericyte numbers were determined by counting the number of CD13-positive cell bodies on the abluminal side of the endothelial membrane (lectin) that co-localized with DAPI (4′,6-diamidino-2-phenylindole)-positive nuclei and tdTomato-positive cell bodies using the Image J Cell Counter plug-in, as the Inventors and others previously described. The number of pericytes was expressed per mm^2 of tissue.

[3] = system: cerebral blood flow (CBF) response; experiment: Cerebral blood flow responses by laser-Doppler flowmetry
Procedure: as §1
Animals were initially anesthetized with 100 mg/kg of ketamine and 50 mg/kg of xylazine and were placed on a heating pad (37° C.). The cranium of the mouse was firmly secured in a stereotaxic frame. A high speed dental drill (tip FST 19007-05, Fine Science Tools Inc., Foster City, Calif.) was used to thin a square cranial window about 2×2 mm over the parietal cortex, and 45 degree forceps were used to remove the square piece of skull. Gelfoam (Pharmacia & Upjohn Company, Kalamazoo, Mass.) was applied immediately to control any cranial or dural bleeding. A sterile 5 mm glass cover slip was then placed on the dura mater and sealed with a 1:1 mixture of bone cement and cyanoacrylate based glue.
CBF responses to hindlimb stimulation in anesthetized mice (˜1% isoflurane) were determined using laser-Doppler flowmetry as previously described. The tip of the laser-Doppler probe (Transonic Systems Inc., Ithaca, N.Y.) was stereotaxically placed 0.5 mm above the cranial window over the hindlimb region of the primary somatosensory cortical area. CBF was recorded following electrical stimulation of the hind-limb using a 60 s long stimulus (7 Hz, 2 ms pulse duration). The percentage increase in CBF due to stimulation was obtained by subtracting the baseline CBF from the stable maximum plateau value reached during stimulus, and averaged over three trials per mouse. For CBF response to drug application, the LDF probe was placed stereotaxically over the center of an open cranial window (center at AP=−0.94 mm, L=1.5 mm). Drugs (10 μM Acetylcholine, and 400 μM Adenosine, all from Sigma) were superfused individually over the window, and responses recorded, as the Inventors reported previously. Arterial blood pressure was monitored continuously during the experiment. pH and blood gases were monitored before and after CBF recordings.

hippocampal function = experiment: Behavioral tests: novel object location and contextual fear conditioning; type: in vivo, mouse
Procedure: Novel object location test was performed as the Inventors have previously reported. Animals were placed in a […] and allowed to habituate to the testing area for 10 min. Animals were then placed back in their cages and 2 identical approximately 5×5 cm objects were placed in the top left and right corner of the testing area. Animals were allowed to explore the two objects in the testing area for 5 min before being returned to their cages. After an hour interval one of the objects was relocated and the animals were allowed to explore the testing area once again for 3 min. After each trial, the testing area and the objects were thoroughly cleaned with 70% ethanol solution. All the trials, including habituation, were recorded with a high resolution camera and the amount of time each animal spent exploring the objects was analyzed. Any animals that presented a preference for either of the two identical objects, before replacement with the novel location, were eliminated from the analysis. Both male and female animals were used in the study.
Long-term memory formation paradigm in contextual fear conditioning was adapted from a previously described protocol with modifications. The experiment was performed using conditioning chamber made of plexiglas housed in a soundproof isolation cubicle and equipped with a stainless-steel grid floor connected to a solid-state shock scrambler. The scrambler was connected to an electronic constant-current shock source that was controlled via an interface connected to a computer running FreezeFrame software (Coulbourn Instruments, Allentown, Pa., USA). A digital camera was mounted on the steel ceiling and behavior was recorded. […] Hippocampus-dependent fear memory formation was evaluated by scoring freezing behavior (the absence of all movement except for respiration). Percentage of total freezing time was assessed using the automated FreezeFrame system with a threshold set at 10%. […]

blood-brain barrier = experiment: Blood-brain barrier integrity: extravascular IgG and fibrin deposits, ZO-1 tight junction length
Procedure: as §1, §2
For each image, ten microns maximum projection z-stacks were reconstructed and analyzed using ImageJ. The levels of extravascular blood-derived fibrin and IgG deposits indicating BBB breakdown were determined as previously described.
For each image, ten microns maximum projection z-stacks were reconstructed and analyzed using ImageJ. The length of ZO-1-positive tight junctions occupying lectin-positive capillary profiles was determined using the NeuronJ plugin for ImageJ, expressed as the length of ZO-1 (mm) over the lectin-positive capillary area (mm^2) as the Inventors have previously reported. ZO-1 and lectin stainings were performed as described above. The length of ZO1-positive tight junctions was normalized to the total area of lectin-positive microvessels using the Image J Area measurement tool.

neurons = experiment: NeuN-positive neuron numbers and SMI-312 neuritic density
Procedure: as §1
Animals were anesthetized with an i.p. injection of 100 mg/kg of ketamine and 50 mg/kg of 10 xylazine, and transcardially perfused first with 15 ml saline, followed by 20 ml of 4% paraformaldehyde (PFA) in PBS. Brains were removed, and post-fixed overnight at 4° C. before brain sections were cut at 30 μm thickness. Sections were blocked with 5% normal donkey serum (Vector Laboratories)/0.1% Triton-X/0.01M PBS and incubated with primary antibody diluted in blocking solution overnight at 4° C. […] Sections were imaged with a Zeiss LSM 510 confocal laser-scanning microscope using a series of high-resolution optical sections (1,024×1,024-pixel format) that were captured with a 25× water-immersion objective, with 1× zoom at 1-μm step intervals for Z-stacks. Laser settings for gain, digital offset and laser intensity were kept standardized between different treatments and experiments. Z-stack projections and pseudo-coloring were performed using ZEN software (Carl Zeiss Microimaging), and image post-analysis were performed using ImageJ software.
For each image, ten microns maximum projection z-stacks were reconstructed and analyzed using ImageJ. NeuN-positive neurons were determined using the ImageJ Cell Counter analysis tool. In each animal, five randomly selected fields from the cortex and the hippocampus in three nonadjacent sections (˜100 μm apart) were analyzed. Six animals per group were analyzed.

[4] = cortex, TAM-treated pericyte-CreER, iDTR mice, 3 days after DT compared to vehicle
[5] = TAM-treated pericyte-CreER, iDTR mice, 3 days after DT compared to vehicle
[6] = control iDTR animals treated with TAM and DT
[7] = somatosensory cortex and hippocampus, respectively, 15 days after DT compared to vehicle

## diphtheria toxin [DT]
[1]
  loss in DTR protein levels in brain capillaries: 90%
  loss of PDGFRβ protein in brain capillaries: 60%
[2]; 3 days after DT treatment
  number of astrocytes, astrocytic endfeet coverage on microvessels or microglia density: no changes were observed
[2]; TAM-treated control iDTR mice, same DT injection protocol
  pericyte coverage: no changes in pericyte coverage
[2]; cortex and hippocampus, 3 days after DT treatment compared to vehicle
  loss of tdTomato-positive pericytes in brain capillaries: 95%
[2]; cortex, 3 days after DT compared to vehicle
  pericyte cell death by TUNEL staining of perivascular tdTomato-positive nuclei: contained fragmented DNA
[2]; [4]
  reduction in pericyte capillary coverage (CD13 on lectin-positive profiles): 50%
  reduction in pericyte density (CD13-positive pericyte cell bodies): 60%
[2]; hippocampus, TAM-treated pericyte-CreER, iDTR mice, 3 days after DT compared to vehicle
  reduction in pericyte density (CD13-positive pericyte cell bodies): 58%
[3]; 10 μM acetylcholine superfused, 3 days after DT treatment or vehicle
  CBF response in the presence of acetylcholine: no difference in CBF response
[3]; 400 μM adenosine superfused, 3 days after DT treatment or vehicle
  CBF response in the presence of adenosine: no difference in CBF response
[3]; [5]
  reduction in CBF response to hind limb electrical stimulus: 50%
[3]; control iDTR animals that received TAM and DT treatment
  change in CBF responses: No significant change
Hippocampal function; TAM-treated pericyte-CreER, iDTR mice, 15 days after DT treatment
  novel object location and fear conditioning: significant behavior deficits
Hippocampal function; TAM-treated pericyte-CreER, iDTR mice, before treatment (0 d), 6 d of DT treatment, 3 days after last DT injection, versus vehicle
  novel object location and fear conditioning: did not show deficits
Hippocampal function; [6]
  novel object location and fear conditioning: no differences
blood-brain barrier; [5]
  reduction in the ZO-1 length on brain capillaries: 50%
blood-brain barrier; control iDTR animals that received TAM and DT
  BBB changes: did not show any BBB changes
blood-brain barrier; [4]
  increase in fibrin deposits: > 4 fold
  increase in plasma-derived immunoglobulin G deposits: > 4 fold
blood-brain barrier; iDTR control animals treated with TAM and DT
  ZO-1 expression: No changes
neurons; before DT treatment and 3 days after last DT injection compared to vehicle
  neuronal or neuritic changes: No significant neuronal or neuritic changes
neurons; [6]
  neuron counts and neuritic density: normal neuron counts and neuritic density
neurons; [7]
  loss of NeuN-positive neuronal cell bodies: 20-25%
  reduction in SMI-312-positive neuritic density: 30-40%
